Read-outs that look alike come from different tables or passages of the source.
Legend:
Aedes mosquito larvae = assay: PDI assay of light-activated larvicidal activity (larva mobility); assay type: in vivo, A. aegypti and A. albopictus; conditions: for EC50: 2nd instar larvae, estimated from concentration vs. larvicidal activity curve, 16 hours PS exposure in dark, then white light, read-out: EC50 for PDT-mediated 2nd-instar larvicidal activities; for 2nd instar larvicidal activity (larva immobilization, % of dark control) compared with positive controls RB and CY: 1/1000 dilution of stock, white light up to 7 hours
From the text: 2nd to 4th instar larvae of A. aegypti and A. albopictus (or Aedes mosquitoes in brief) were used in the experiments, as they are known vectors of Zika fever and other viral diseases. Colonies of both species were reared to provide the larvae of all instars under the approved conditions of a humidified “warm room” (˜28 C, ˜80% relative humidity).
The PDI assay to determine the larvicidal activities of the PS in Table 1 was based on procedures developed for mammalian and protozoa cells with modifications for mosquito larvae. Briefly, each PS was tested in 3-4 concentrations in 10-fold serial dilutions, starting with a 1/100 dilution of the stock solution (see Table 1 for the PS stock concentrations) as the highest. The solvent (DMSO) at these PS concentrations was ≤1%, which was pre-tested alone and shown to have no larvicidal activity. Larvae were PS-exposed (and not exposed as a control) in groups of 20 per 5 mL of water per well of a 6-well plate, in duplicate. All plates were foil-wrapped for overnight incubation under dark conditions in the “warm room.” After 16 hours of PS exposure, one of the duplicate 6-well plates was un-wrapped and the lid removed for exposure from the top with white light from a fluorescent tube-containing box (1-2 J/cm^2). The remaining 6-well plate of the duplicate was exposed under exactly the same conditions, but remained foil-wrapped as the dark control. Larvae were checked for mobility and readings recorded hourly for up to 7 hours. […] Each condition was repeated 4-5 times in independent experiments.

[1] = system: Culex pipiens quinquefasciatus 4th instar larvae; assay: Uptake and photo-inactivation in mosquito larvae kept in dye-containing water; assay type: in vivo
Method: Panel [A]: Culex pipiens quinquefasciatus 4th instar larvae exposed to rose Bengal (10 μg/mL) (˜20 larvae/5 mL water/well in 6-well plate) in dark for ˜24 hours followed by exposure to white light for ˜6 hrs at ˜2500 lux. Panels [B] and [C]: Phlebotomus duboscqi female (B) and male (C) adult flies (˜20 flies/screened paper cup) fed with 5% sucrose solution and 500 μL of 5 mg/mL rose bengal in a cotton ball for ˜20 hrs in the dark followed by exposure to ˜2500 lux of white light for 3 hrs. Duplicate samples were prepared and kept in the dark as controls. Rose bengal was taken up by the mosquito larvae and sand flies of both sexes.
Culex pipiens quinquefasciatus 4th instar larvae were exposed to rose Bengal or cyanosine (10 μg/mL) (˜20 larvae/5 mL water/well in 6-well plate) in the dark for ˜24 hours followed by exposure to white light for ˜6 hrs at ˜2500 lux; Phlebotomus duboscqi female (FIG. 1, panel B) and male (FIG. 1, panel C) adult flies (˜20 flies/screened paper cup) fed with 5% sucrose solution and 500 μL of 5 mg/ml rose bengal in a cotton ball for ˜20 hrs in the dark followed by exposure to ˜2500 lux of white light for 3 hrs. Duplicate samples were prepared and kept in the dark as controls.
The susceptibility of PS-sensitized insects to white light illumination varied with the species and the PSs used. […]

[2] = system: Aedes albopictus clone C6/36 (ATCC CRL-1660); assay: Uptake of PS by mosquito cells in vitro and photo-inactivation; conditions: for state of sensitized cells after light exposure: white light, 4 hrs
Method: (§1) The insect cells were exposed to both dyes overnight and illuminated with white light under conditions similar to those described for mammalian and Leishmania cells. Images were captured first under differential interference (DIF) [A] and then under the filter sets for DAPI and Texas red [B]. [C] Chemical structure of cyanosione and rose Bengal.
as §1, with “Uptake of PS was assessed in insect cells, specifically Aedes albopictus clone C6/36 (ATCC CRL-1660). The” for “The”, “cells. […]” for “cells.”

[3] = 1/10000 dilution of the stocks, light-activated

O=C([O-])c1c(Cl)c(Cl)c(Cl)c(Cl)c1-c1c2cc(I)c(=O)c(I)c-2oc2c(I)c([O-])c(I)cc12.[Na+].[Na+] [Rose Bengal]
viability of 2nd to 4th instar larvae (Aedes mosquito larvae; [3]): reduced the viability of all instars to a variable extent | EC50 (Aedes mosquito larvae; Aedes): 250 nM | phototoxicity to mosquito larvae ([1]; 10 μg/mL, dark ~24 hours, then white light ~6 hrs at ~2500 lux): especially evident | difference of sensitized larvae between dark and light conditions ([1]; motility as viability readout): significant | state of sensitized cells kept in the dark ([2]; dark): remained adherent and intact | state of sensitized cells after light exposure [2]: cellular disintegration | state of sensitized cells after light exposure ([2]; listed as RB): became disintegrated

Meso- Tetraphenylpor- phine disulphonic acid dihydrochoride [TPPS2]
2nd instar larvicidal activity (larva immobilization, % of dark control) compared with positive controls RB and CY (Aedes mosquito larvae): most similar to RB | effect on the other instars (3rd, 4th) (Aedes mosquito larvae; [3]): unscathed

Meso-tetra(4- n,n,n- trimethylanili- nium) porphine tetrachloride [TMAP]
2nd instar larvicidal activity (larva immobilization, % of dark control) compared with positive controls RB and CY (Aedes mosquito larvae): most similar to RB | effect on the other instars (3rd, 4th) (Aedes mosquito larvae; [3]): unscathed | EC50 (Aedes mosquito larvae): 100 nM

From patent publication US10070648B2, “Photodynamic insecticides” (ROSALIND FRANKLIN UNIVERSITY OF MEDICINE AND SCIENCE, priority 2016, dated 2018)
